Holding throughout (assay): growth of human tumour cells (NCI), 48 h
In assay [1] the test system is A498.
In assay [2] the test system is A549.
In assay [3] the test system is HL-60.
Assay [4] concerns Hs-578T.
The test system of assay [5] is IGROV-1.
In assay [6] the test system is KM12.
Assay [7] relates to M14.
The subject of assay [8] is MCF7.
Assay [9] relates to NCI-H226.
For assay [10], the system named is NCI-H23.
Assay [11] concerns NCI/ADR-RES.
Assay [12] has as its system OVCAR-4.
Assay [13] relates to OVCAR-5.
Assay [14] concerns OVCAR-8.
Assay [15] relates to RXF 393.
The test system of assay [16] is SF-268.
Assay [17] relates to SK-OV-3.
Assay [18] relates to T47D.
Assay [19] relates to UO-31.

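How tested: cells in 96-well plates exposed to compound for 48 hours at five concentrations. GI50: concentration for 50% inhibition of growth.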 Calls of active or inactive are those of the source. Rule as the data show it: active = GI50 up to about 1.1 µM and inactive = higher. A value given as a limit tells only on which side of the number the result lay.

In the case of `CN1CCc2nc(N)nc(-c3nc(N)nc4c3CN(C)CC4)c2C1`, the GI50 in [1], in [2], in assay [3], in [4], in [5] and in assay [6] was > 100 µM (inactive) each time. The GI50 in [7], in assay [8], in assay [9], in assay [10], in assay [11] and in [12] was > 100 µM (inactive) each time. The GI50 in assay [13], in assay [14], in assay [15], in [16], in [17] and in assay [18] was > 100 µM (inactive) in each case. Further, the GI50 in [19] is > 100 µM (inactive).

`CC(C)(CN1CCCCC1)C(/C=C/c1ccc(Cl)cc1)=N\NC(=O)N/N=C(/C=C/c1ccc(Cl)cc1)C(C)(C)CN1CCCCC1`: the GI50 in assay [1] is 7.69 µM (inactive); in assay [2] it was 7.28 µM (inactive); in assay [3], 2.33 µM (inactive); in [4], 5.9 µM (inactive); in assay [5] it was 2.98 µM (inactive); in [6], 3.24 µM (inactive). Also, the GI50 in assay [7] was 3.41 µM (inactive); in assay [8], 4.02 µM (inactive); in [9] it was 4.58 µM (inactive); in [10], 2.92 µM (inactive); in assay [11], 3.86 µM (inactive); in [12] it was 2.86 µM (inactive). Also, the GI50 in assay [13] was 3.95 µM (inactive); in [14], 4.38 µM (inactive); in assay [15] it was 2.64 µM (inactive); in assay [16] it was 5.46 µM (inactive); in assay [17] it was 6.68 µM (inactive); in assay [18], 3.44 µM (inactive). Besides, the GI50 in [19] was 3.49 µM (inactive).

For `CC1=NN(c2cccc(Cl)c2)C2(C1=Cc1ccccc1)C(Cl)C(=O)N2c1nc2ccccc2s1` (stereo unspecified), the GI50 in assay [1] is 18.2 µM (inactive); in [3], 22.1 µM (inactive); in assay [4], 23.2 µM (inactive); in assay [5], 15.1 µM (inactive); in assay [6], 17.3 µM (inactive); in assay [7], 20.4 µM (inactive). In addition, the GI50 in [8] was 22.2 µM (inactive); in [9], 23.8 µM (inactive); in assay [10], 14.5 µM (inactive); in assay [11], 20.4 µM (inactive); in [12], 19.1 µM (inactive); in assay [13], 21.3 µM (inactive). Further, the GI50 in assay [14] is 32.1 µM (inactive); in assay [15] it was 14 µM (inactive); in assay [16] it was 23.2 µM (inactive); in assay [17], 20.9 µM (inactive); in assay [18], 18.5 µM (inactive); in [19] it was 16.3 µM (inactive).

Take `C[Si](C)(C)C#CCO[Si](C)(C)C`: the GI50 in [1] is > 100 µM (inactive); in assay [2] it was > 100 µM (inactive); in assay [3] it was 31.5 µM (inactive); in assay [4] it was > 100 µM (inactive); in assay [5] it was 16.1 µM (inactive); in assay [6] it was > 50.4 µM (inactive). In addition, the GI50 is > 74.8 µM (inactive) in assay [7]; > 74.8 µM (inactive) in [8]; > 100 µM (inactive) in [9]; 68.7 µM (inactive) in [10]; > 100 µM (inactive) in assay [11]; > 100 µM (inactive) in assay [12]. Also, the GI50 in assay [13] is > 100 µM (inactive); in [14], 36.3 µM (inactive); in [15], > 100 µM (inactive); in assay [16], 34.2 µM (inactive); in assay [17], > 100 µM (inactive); in [18] it was > 70.6 µM (inactive). The GI50 in assay [19] is > 100 µM (inactive).

As to `O=C(C=P(c1ccccc1)(c1ccccc1)c1ccccc1)c1ccc(-c2cccs2)cc1`, the GI50 in [1] is 0.9 µM (active); in assay [2], 3.17 µM (inactive); in [3] it was 2.11 µM (inactive); in assay [4], 18.5 µM (inactive); in assay [5] it was 7.73 µM (inactive); in [6] it was 4.13 µM (inactive). The GI50 in assay [7] was 2.57 µM (inactive); in assay [8] it was 3.41 µM (inactive); in [9] it was 2.86 µM (inactive); in assay [10], 8.91 µM (inactive); in [11] it was 4.48 µM (inactive); in assay [12] it was 2.36 µM (inactive). Moreover, the GI50 is 5 µM (inactive) in [13]; 4.86 µM (inactive) in assay [14]; 3.11 µM (inactive) in [15]; 12.9 µM (inactive) in assay [16]; 5.66 µM (inactive) in [17]; 2.33 µM (inactive) in [18]. The GI50 in [19] is 3.48 µM (inactive).

With `O=C1O[C@]2(c3ccccc3)C(c3ccccc3)=C[C@]2(C(=O)c2ccccc2)C1=O`, the GI50 is 35.5 µM (inactive) in [1]; 37.2 µM (inactive) in assay [2]; 5.98 µM (inactive) in assay [3]; 39.2 µM (inactive) in assay [4]; 33.1 µM (inactive) in assay [5]; 35.8 µM (inactive) in assay [6]. Further, the GI50 in assay [7] is 32.3 µM (inactive); in [8] it was 28.4 µM (inactive); in [9] it was 29.9 µM (inactive); in assay [10], 33.7 µM (inactive); in assay [11] it was 31.6 µM (inactive); in assay [12] it was 39.1 µM (inactive). Besides, the GI50 was > 100 µM (inactive) in assay [13]; 29.8 µM (inactive) in assay [14]; 0.05 µM (active) in [15]; 38 µM (inactive) in [16]; 42.4 µM (inactive) in assay [17]; 1.12 µM (inactive) in assay [18]. Moreover, the GI50 in assay [19] is 27.9 µM (inactive).

Regarding `O=C1C=CC2(C=C1)O[C@H](CCc1ccccc1)[C@@H](CCc1ccccc1)O2`, the GI50 in assay [1] was > 100 µM (inactive); in assay [2] it was 43.7 µM (inactive); in assay [3], > 100 µM (inactive); in [4], > 100 µM (inactive); in [5] it was 98.9 µM (inactive); in [6], > 100 µM (inactive). The GI50 in [7] was > 100 µM (inactive); in assay [8], > 100 µM (inactive); in [9], > 100 µM (inactive); in assay [10], > 100 µM (inactive); in assay [11] it was > 100 µM (inactive); in [12] it was 85.5 µM (inactive). In addition, the GI50 in assay [13] was > 100 µM (inactive); in assay [14] it was > 100 µM (inactive); in [15], 24.3 µM (inactive); in [16], 61.8 µM (inactive); in assay [17], > 100 µM (inactive); in assay [18] it was 76.4 µM (inactive). The GI50 in assay [19] is > 100 µM (inactive).

For `CCCCCCCCCCCCOP(=O)(O)OCC(N)C(=O)O` (stereo unspecified), the GI50 was 24.6 µM (inactive) in [1]; 24.7 µM (inactive) in assay [2]; 17.4 µM (inactive) in assay [3]; 10.3 µM (inactive) in assay [4]; 35.6 µM (inactive) in assay [5]; 68.1 µM (inactive) in assay [7]. Further, the GI50 is 39.3 µM (inactive) in assay [8]; 19.7 µM (inactive) in assay [9]; 29.9 µM (inactive) in assay [10]; 36.3 µM (inactive) in [11]; 39 µM (inactive) in assay [12]; 40.8 µM (inactive) in assay [13]. For the same compound, the GI50 was 38.5 µM (inactive) in assay [14]; 21 µM (inactive) in assay [15]; 26.8 µM (inactive) in [16]; 17.1 µM (inactive) in assay [17]; > 100 µM (inactive) in assay [18]; 15.5 µM (inactive) in assay [19].

Regarding `Cc1nn(-c2ccccc2)c2nc(S)cnc12`, the GI50 in [1], in [2], in [3], in assay [4], in assay [5] and in assay [7] was > 100 µM (inactive) in each case. In addition, the GI50 in [8], in assay [9], in [10], in assay [11], in [12] and in assay [13] was > 100 µM (inactive) throughout. In addition, the GI50 in assay [14], in [15], in assay [16], in [17], in assay [18] and in assay [19] was > 100 µM (inactive) each time.

Turning to `CC(C)C(C/C=C1/CC(CO)(COC(=O)CC(C(C)C)C(C)C)OC1=O)C(C)C` (stereo unspecified), the GI50 in assay [1] was 2.98 µM (inactive); in assay [2] it was 0.298 µM (active); in assay [3], 0.0931 µM (active); in [4] it was 0.102 µM (active); in [5], 17.1 µM (inactive); in assay [6] it was 6.82 µM (inactive). The GI50 was 12.5 µM (inactive) in [7]; 13.6 µM (inactive) in [8]; 8.93 µM (inactive) in assay [9]; 14.7 µM (inactive) in assay [10]; 16 µM (inactive) in assay [11]; 17.3 µM (inactive) in assay [12]. The GI50 in assay [13] is 9.42 µM (inactive); in assay [14], 16.1 µM (inactive); in assay [15] it was 11.1 µM (inactive); in [16], 10.6 µM (inactive); in [17], 16.7 µM (inactive); in [18], 0.982 µM (active). The GI50 in [19] is 2.86 µM (inactive).

For `CCc1nc(N)nc(N)c1-c1ccc(N2CCNCC2)cc1`, the GI50 in [1] is > 97.1 µM (inactive); in [2] it was 54.3 µM (inactive); in [3], 34.4 µM (inactive); in assay [4] it was > 100 µM (inactive); in [5], 64.7 µM (inactive); in assay [6] it was > 95.9 µM (inactive). Moreover, the GI50 in [7] was 34.9 µM (inactive); in [8], 47.3 µM (inactive); in [9] it was > 100 µM (inactive); in assay [10] it was 46 µM (inactive); in assay [11], > 100 µM (inactive); in assay [12], 74.8 µM (inactive). The GI50 in [13] is > 100 µM (inactive); in [14] it was 66.5 µM (inactive); in assay [15] it was 64.9 µM (inactive); in assay [16] it was 84.7 µM (inactive); in [17], > 100 µM (inactive); in assay [18], 57.7 µM (inactive). In addition, in [19], the GI50 was > 100 µM (inactive).
